Source: publication PMC5579037, “Modification of the response of olfactory receptors to acetophenone by CYP1a2” (Scientific Reports, 2017)

Legend:
Format in all cases: cell-based
[1] = target: T1, MOR164-2 (Mus musculus, UniProt Q7TRB9); assay: CRE-luciferase reporter assay in Hana3A cells; conditions: no CYP co-expressed; RTP1S and M3-R; 3 h, 37 °C; agonist
T1 construct: gene Or8b56; ORF from mouse genomic DNA, N-terminal Rho-tag, pCI; Hana3A cells with RTP1S and M3-R
T1 sequence (Q7TRB9 1-317): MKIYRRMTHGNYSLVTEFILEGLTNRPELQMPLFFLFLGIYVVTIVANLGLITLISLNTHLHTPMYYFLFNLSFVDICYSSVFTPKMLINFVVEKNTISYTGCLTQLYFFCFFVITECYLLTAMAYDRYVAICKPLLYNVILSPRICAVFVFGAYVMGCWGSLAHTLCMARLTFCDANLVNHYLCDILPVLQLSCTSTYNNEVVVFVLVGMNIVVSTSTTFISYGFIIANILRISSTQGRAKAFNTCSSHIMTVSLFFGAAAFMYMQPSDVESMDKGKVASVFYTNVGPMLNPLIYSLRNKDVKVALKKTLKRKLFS

[2] = target: T2, MOR123-2 (Mus musculus, UniProt E9Q8M2); assay: CRE-luciferase reporter assay in Hana3A cells; conditions: no CYP co-expressed; RTP1S and M3-R; 3 h, 37 °C; agonist
T2 construct: gene Or10aa3; ORF from mouse genomic DNA, N-terminal Rho-tag, pCI; Hana3A cells with RTP1S and M3-R
T2 sequence (E9Q8M2 1-312): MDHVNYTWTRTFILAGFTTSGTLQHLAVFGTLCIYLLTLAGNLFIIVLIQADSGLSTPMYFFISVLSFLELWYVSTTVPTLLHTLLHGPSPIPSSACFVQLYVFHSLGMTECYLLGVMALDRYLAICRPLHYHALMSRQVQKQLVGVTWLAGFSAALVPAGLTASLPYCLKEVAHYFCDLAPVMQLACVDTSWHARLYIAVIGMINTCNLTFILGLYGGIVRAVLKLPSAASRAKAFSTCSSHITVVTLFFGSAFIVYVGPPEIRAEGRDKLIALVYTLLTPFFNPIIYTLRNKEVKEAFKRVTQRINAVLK

[3] = target: T3, MOR161-2 (Mus musculus, UniProt Q7TRE6); assay: CRE-luciferase reporter assay in Hana3A cells; conditions: no CYP co-expressed; RTP1S and M3-R; 3 h, 37 °C; agonist
T3 construct: gene Or8b12; Hana3A cells with RTP1S and M3-R
T3 sequence (Q7TRE6 1-310): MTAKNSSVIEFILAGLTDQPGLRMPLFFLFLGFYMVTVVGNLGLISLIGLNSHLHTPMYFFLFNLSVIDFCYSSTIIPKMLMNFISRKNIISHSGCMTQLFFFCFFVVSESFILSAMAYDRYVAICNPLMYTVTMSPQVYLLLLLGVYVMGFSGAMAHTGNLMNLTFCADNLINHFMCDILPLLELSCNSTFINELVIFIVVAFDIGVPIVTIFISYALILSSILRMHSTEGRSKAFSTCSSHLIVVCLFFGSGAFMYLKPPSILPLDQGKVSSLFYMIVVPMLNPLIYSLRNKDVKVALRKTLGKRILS

[4] = target: T4, CYP1a2 (Mus musculus, UniProt P00186); assay: P450-Glo luminescence assay in transfected Hana3A cells; conditions: CD293 medium, 3 h, 37 °C; against mock transformant
T4 construct: cDNA from mouse olfactory epithelium library, pCI vector, expressed in Hana3A cells
T4 sequence (P00186 2-513): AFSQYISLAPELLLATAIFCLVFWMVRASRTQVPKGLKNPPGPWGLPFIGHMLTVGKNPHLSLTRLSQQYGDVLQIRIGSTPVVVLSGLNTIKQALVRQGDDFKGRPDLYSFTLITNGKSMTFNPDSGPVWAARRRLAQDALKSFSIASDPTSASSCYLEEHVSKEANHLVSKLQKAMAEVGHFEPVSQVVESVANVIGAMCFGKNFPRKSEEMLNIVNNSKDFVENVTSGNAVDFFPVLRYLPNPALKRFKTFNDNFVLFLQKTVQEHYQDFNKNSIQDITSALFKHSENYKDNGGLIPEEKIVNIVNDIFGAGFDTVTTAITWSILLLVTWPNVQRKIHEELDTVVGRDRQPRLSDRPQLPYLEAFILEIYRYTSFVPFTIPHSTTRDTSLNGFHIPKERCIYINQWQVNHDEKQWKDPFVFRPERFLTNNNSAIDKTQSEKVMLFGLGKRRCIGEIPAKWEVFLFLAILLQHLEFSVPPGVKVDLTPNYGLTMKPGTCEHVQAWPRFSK

| Structure (SMILES) | CRE-luciferase reporter assay in Hana3A cells [1] | CRE-luciferase reporter assay in Hana3A cells [2] | CRE-luciferase reporter assay in Hana3A cells [3] | P450-Glo luminescence assay in transfected Hana3A cells [4] |
| --- | --- | --- | --- | --- |
| CC(=O)c1ccccc1 [acetophenone] | We observed effects of CYPs on the responses of MOR123-2, MOR161-2 and MOR164-2. | We observed effects of CYPs on the responses of MOR123-2, MOR161-2 and MOR164-2. | We compared the response of MOR161-2 against acetophenone and methyl salicylate. | – |
| COc1ccc2nc(C3=NC(C(=O)O)CS3)sc2c1 (stereo not shown) [luciferin-ME] | – | – | – | Functional expression of CYP1a2 in Hana3A cells was confirmed by the P450-Glo assay using luciferin-ME |
| COC(=O)c1ccccc1 [methyl benzoate] | – | – | Potential intermediates are methyl benzoate and salicylate, and indeed MOR161-2 responded to both of them. | – |
| COC(=O)c1ccccc1O [methyl salicylate] | – | – | MOR161-2 showed a larger response to methyl salicylate than acetophenone. | – |
| O=C(O)c1ccccc1O [salicylic acid] | – | – | Potential intermediates are methyl benzoate and salicylate, and indeed MOR161-2 responded to both of them. | – |
